Earlier results in US7671073B2, “Cyclohexylalanine derivatives as dipeptidyl peptidase-IV inhibitors for the treatment or prevention of diabetes” (Merck Sharp & Dohme Corp., priority 2004, dated 2010).

Assays:
[1] = rats; Transplantation, 63: 1495-1500 (1997)
[2] = mouse, cyclophosphamide-induced neutropenia; WO 99/56753
DP-IV = target: T1, DP-IV (Homo sapiens, UniProt P27487)
T1 construct: GRF is rapidly degraded in plasma to GRF[3-44]
T1 sequence (P27487 whole entry): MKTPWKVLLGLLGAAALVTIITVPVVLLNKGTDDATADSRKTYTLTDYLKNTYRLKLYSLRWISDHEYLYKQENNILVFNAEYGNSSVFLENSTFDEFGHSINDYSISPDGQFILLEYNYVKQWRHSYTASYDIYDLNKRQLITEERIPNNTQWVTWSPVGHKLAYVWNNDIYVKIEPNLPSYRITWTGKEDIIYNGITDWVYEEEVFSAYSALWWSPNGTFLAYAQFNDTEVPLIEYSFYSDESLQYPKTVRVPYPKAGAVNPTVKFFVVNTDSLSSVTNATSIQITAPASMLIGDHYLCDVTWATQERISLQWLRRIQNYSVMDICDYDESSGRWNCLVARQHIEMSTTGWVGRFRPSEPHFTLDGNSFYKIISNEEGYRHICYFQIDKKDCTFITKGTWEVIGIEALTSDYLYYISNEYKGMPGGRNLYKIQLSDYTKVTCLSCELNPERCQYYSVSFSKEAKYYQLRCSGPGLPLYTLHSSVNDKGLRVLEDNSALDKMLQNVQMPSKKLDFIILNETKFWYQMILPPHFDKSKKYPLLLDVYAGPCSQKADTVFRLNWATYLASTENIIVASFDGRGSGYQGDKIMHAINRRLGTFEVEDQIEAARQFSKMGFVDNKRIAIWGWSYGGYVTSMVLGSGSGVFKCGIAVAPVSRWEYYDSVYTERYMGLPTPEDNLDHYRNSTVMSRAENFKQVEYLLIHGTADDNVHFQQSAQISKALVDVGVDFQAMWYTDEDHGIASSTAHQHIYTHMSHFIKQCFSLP

In the case of `CC(C)N1CCC(c2ccccc2)(c2ccccc2)CC1` [Prodipine, Pro-Pro-diphenyl-phosphonate], the cardiac allograft survival [1] is listed as “double cardiac allograft survival in rats from day 7 to day 14”.
For `CC(C)[C@H](N)C(=O)N1CCC[C@H]1B(O)O` [Val-Boro-Pro], the hematopoiesis [2] is given as “stimulated hematopoiesis”.
For diprotin A, the “degradation of GRF to GRF[3-44] in plasma” value (DP-IV) is listed as “prevented”.
